{"source": "patent US20120238623A1", "about": "“Inflammation and Autoimmune Disorder Treatment using RARa Selective Agonists” (priority 2011, published 2012)", "key": {"RARα": {"target": "T1, RARα (Homo sapiens, UniProt P10276)", "T1 sequence (P10276 1-462)": "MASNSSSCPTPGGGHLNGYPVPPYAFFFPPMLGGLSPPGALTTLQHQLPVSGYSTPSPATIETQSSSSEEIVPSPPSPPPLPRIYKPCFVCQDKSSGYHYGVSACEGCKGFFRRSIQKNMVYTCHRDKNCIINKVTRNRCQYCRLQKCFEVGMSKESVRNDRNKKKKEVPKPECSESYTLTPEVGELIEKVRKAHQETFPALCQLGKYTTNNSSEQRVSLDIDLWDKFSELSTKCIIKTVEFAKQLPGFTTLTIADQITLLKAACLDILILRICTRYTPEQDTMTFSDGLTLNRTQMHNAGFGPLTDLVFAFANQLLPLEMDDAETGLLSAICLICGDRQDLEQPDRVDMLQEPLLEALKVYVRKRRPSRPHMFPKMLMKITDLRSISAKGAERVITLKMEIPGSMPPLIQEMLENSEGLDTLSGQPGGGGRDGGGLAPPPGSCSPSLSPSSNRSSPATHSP", "assay": "displacement assay to measure agonist binding affinity", "conditions": "read-out: Binding Affinities for RARα"}, "RARβ": {"target": "T2, RARβ (Homo sapiens, UniProt P10826)", "T2 sequence (P10826 1-455)": "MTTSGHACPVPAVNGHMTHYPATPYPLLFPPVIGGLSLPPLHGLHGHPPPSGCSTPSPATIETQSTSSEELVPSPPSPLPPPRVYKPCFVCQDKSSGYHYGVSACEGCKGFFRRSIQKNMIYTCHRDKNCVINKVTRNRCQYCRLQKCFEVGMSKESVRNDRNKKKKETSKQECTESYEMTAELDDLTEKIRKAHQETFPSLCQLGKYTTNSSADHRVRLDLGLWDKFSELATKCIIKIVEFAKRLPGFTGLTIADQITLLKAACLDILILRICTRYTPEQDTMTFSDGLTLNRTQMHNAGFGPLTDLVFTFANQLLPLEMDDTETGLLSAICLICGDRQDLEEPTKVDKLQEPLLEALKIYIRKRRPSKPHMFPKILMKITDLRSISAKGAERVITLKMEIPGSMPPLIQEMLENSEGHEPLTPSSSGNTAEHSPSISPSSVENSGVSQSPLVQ", "assay": "displacement assay to measure agonist binding affinity", "conditions": "read-out: Binding Affinities for RARβ"}, "RARγ": {"target": "T3, RARγ (Homo sapiens, UniProt P13631)", "T3 sequence (P13631 1-454)": "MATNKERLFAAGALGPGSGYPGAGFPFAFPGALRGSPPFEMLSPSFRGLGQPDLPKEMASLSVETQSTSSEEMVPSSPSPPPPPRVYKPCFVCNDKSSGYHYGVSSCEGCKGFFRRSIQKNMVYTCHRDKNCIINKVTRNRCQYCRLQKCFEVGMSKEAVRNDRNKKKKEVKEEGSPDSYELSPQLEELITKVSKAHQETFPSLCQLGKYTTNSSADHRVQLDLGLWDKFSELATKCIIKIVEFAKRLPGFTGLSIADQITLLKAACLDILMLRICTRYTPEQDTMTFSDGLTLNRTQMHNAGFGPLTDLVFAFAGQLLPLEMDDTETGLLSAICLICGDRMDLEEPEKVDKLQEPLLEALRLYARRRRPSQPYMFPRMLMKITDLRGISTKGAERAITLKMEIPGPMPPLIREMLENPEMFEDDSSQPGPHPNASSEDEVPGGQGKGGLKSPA", "assay": "displacement assay to measure agonist binding affinity", "conditions": "read-out: Binding Affinities for RARγ"}, "RARα, RARβ, and RARγ": {"system": "RARα, RARβ, and RARγ", "assay": "transactivation assay to measure agonist activity", "format": "cell-based", "conditions": "FIG. 2", "text": "Other RARα selective agonists useful as a compound disclosed herein are described in, e.g., Teng, et al., Aryl or Heteroaryl Amides of Tetrahydronaphthalene, Chroman, Thiochroman and 1,2,3,4-Tetrahydroquinoline Carboxylic Acids, Having an Electron Withdrawing Substituent in the Aromatic Or Heteroaromatic Moiety, Having Retinoid-Like Biological Activity, U.S. Pat. No. 5,856,490; Teng, et al., Methods of Treatment with Compounds Having RARα Receptor Specific or Selective Activity, U.S. Pat. No. 5,965,606; and Nehma, et al., Treatment of Tumors with RARα Selective Retinoid Compounds in Combination with Other Anti-Tumor Agents, U.S. Pat. No. 6,387,950; each of which is incorporated by reference in its entirety. […] Assays by which a compound can be tested and established whether or not it is an RARα selective agonist, are known in the art and are described in numerous prior art publications and patents."}, "[1]": {"system": "Naive CD4+ CD25− FoxP3− cells", "assay": "Treg cell differentiation (FoxP3-GFP expression by flow cytometry) in vitro", "format": "cell-based, mouse", "conditions": "αCD3, IL-2 and TGF-β", "procedure": "Purified CD4+ CD25^− FoxP3^− cells were cultured in media with the specified concentration of each RAR agonist and analyzed by flow cytometry for FoxP3 (A), α4β7 (B), and CCR9 (C) expression in total CD4 T cells. FoxP3 results are representative of 3 independent experiments. CCR9 and α4β7 results are representative of multiple experiments.\nIt is important to determine which of the RAR (RARα, RARβ, RARγ) signaling pathways is important in the induction of Foxp3 expression. To determine this, naive CD4^+ CD25^− FoxP3^− cells were purified from a Foxp3-GFP mouse using flow cytometry by sorting and isolating based upon a GFP^− phenotype. These cells were activated polyclonally with αCD3 in vitro in the presence of IL-2 and TGF-β. To identify the RAR involved in RA-induced, the cultured cells were incubated with RAR selective agonists. The cultured cells were then score for the frequency of GFP+ (Foxp3+). With respect to the use of selective agonists, only the RARα agonist exerted significant impact on the expression of Foxp3 inducing nearly 100% Foxp3+ T cells, with enhancement on the expression of α4β7 and CCR9 (gut homing receptors) (FIG. 1). The RARγ and RARβ agonists were without effect.\n(§1) To determine whether a RARα selective agonist could affect T cell differentiation, T cells were incubated with a RARα selective agonist to determine its effect on Foxp3 expression evaluated. Naive CD4^+ CD25^− FoxP3^− cells were purified from a Foxp3-GFP mouse using flow cytometry by sorting and isolating based upon a GFP^− phenotype. These cells were activated polyclonally with αCD3 in vitro in the presence of IL-2 and TGF-β. These cells were then cultured in media with various concentrations of compound 5183 (a RARα selective agonist) and the expression of FoxP3-GFP was analyzed by flow cytometry. The RARα selective agonist compound 5183 enhanced differentiation of immunosuppressive Treg cells and inhibited differentiation of inflammatory TH17 cells from Naïve T cells in vitro (Table 2)."}, "Naïve T cells": {"system": "Naïve T cells", "assay": "Th17 cell differentiation from Naïve T cells in vitro", "format": "cell-based, mouse", "procedure": "as §1"}, "CD4+ T cells": {"system": "CD4+ T cells", "assay": "in vivo FoxP3 expression in CD4+ T cells of blood and spleen", "set-up": "species or system mouse", "conditions": "mice, 100 μg every other day for 10 days", "procedure": "To expand on the finding above, the in vivo effects of a RARα selective agonist on T cell differentiation was evaluated in a mouse model. Mice were treated 100 μg of compound 5183 (a RARα agonist) or an equivalent volume of DMSO (vehicle control) every other day for 10 days. Lymphocytes from the blood and spleen were then isolated and FoxP3 expression in CD4^+ T cells was assessed."}, "[2]": {"system": "experimental autoimmune encephalomyelitis (EAE)", "assay": "experimental autoimmune encephalomyelitis (EAE) mouse model", "format": "in vivo, SJL mice", "procedure": "To determine if RARα selective agonists reduce symptoms associated with an autoimmune disorder, the effects of a RARα selective agonist was evaluated in an experimental autoimmune encephalomyelitis (EAE) mouse model. EAE is an inflammatory disease of the central nervous system widely used as a model of multiple sclerosis in which Th17 cells are the principle mediators of the symptoms observed. […] In one set of experiments, the effects of prophylactic dosing were assessed. Mice were administered 1 mg/kg of compound 5183 intraperitoneally every other day starting day 1 after EAE induction. In a second set of experiments, the effects of therapeutic dosing were assessed. Mice were administered 2 mg/kg of compound 5183 intraperitoneally every other day starting day 7 after EAE induction. Clinical parameters of disease (loss of bodyweight and paralysis/paresis) were monitored on a daily basis."}}, "data": [{"smiles": "CC1(C)CCC(C)(C)c2c1cc(C(=O)Nc1cc(F)c(C(=O)O)c(F)c1)c(O)c2Cl", "note": "[Compound 5183]", "values": [{"measurement": "Kd", "setting": "RARα", "result": 0.0047, "unit": "µM"}, {"measurement": "Kd", "setting": "RARβ", "result": "> 10", "unit": "µM"}, {"measurement": "Kd", "setting": "RARγ", "result": "> 10", "unit": "µM"}, {"measurement": "activation of transcription from RARα, RARβ, and RARγ", "setting": "RARα, RARβ, and RARγ", "result": "specifically activates RARα"}, {"measurement": "Treg cell Percent Differentiation (%)", "setting": "[1]; 0.1 nM", "result": 26, "unit": "%"}, {"measurement": "Treg cell Percent Differentiation (%)", "setting": "[1]; 1 nM", "result": 55, "unit": "%"}, {"measurement": "Treg cell Percent Differentiation (%)", "setting": "[1]; 10 nM", "result": 90, "unit": "%"}, {"measurement": "Th17 cell Percent Differentiation (%)", "setting": "Naïve T cells; 0.1 nM", "result": 32, "unit": "%"}, {"measurement": "Th17 cell Percent Differentiation (%)", "setting": "Naïve T cells; 1 nM", "result": 21, "unit": "%"}, {"measurement": "Th17 cell Percent Differentiation (%)", "setting": "Naïve T cells; 10 nM", "result": 11, "unit": "%"}, {"measurement": "Th17 cell Percent Differentiation (%)", "setting": "Naïve T cells; 100 nM", "result": 5, "unit": "%"}, {"measurement": "Foxp3+ Expression (%)", "setting": "CD4+ T cells; Blood", "result": 4.3, "unit": "%"}, {"measurement": "Foxp3+ Expression (%)", "setting": "CD4+ T cells; Spleen", "result": 25, "unit": "%"}, {"measurement": "symptoms associated with EAE (loss of bodyweight and paralysis/paresis)", "setting": "[2]; prophylactic dosing: 1 mg/kg intraperitoneally every other day starting day 1 after EAE induction", "result": "reduced symptoms associated with EAE"}, {"measurement": "symptoms associated with EAE (loss of bodyweight and paralysis/paresis)", "setting": "[2]; therapeutic dosing: 2 mg/kg intraperitoneally every other day starting day 7 after EAE induction", "result": "reduced symptoms associated with EAE"}]}]}
